In patent US20260091015A1, “TREATING IRON DEFICIENCY WITH FERRIC CARBOXYMALTOSE” (PHARMACOSMOS HOLDING A/S, priority 2018, published 2026):

Key:
human intact FGF23 = test: Intact FGF23 (iFGF23) over time, two-site ELISA, trials IDA-04/IDA-05; assay type: in vivo; settings: single dose 1000 mg at baseline
Procedure: The trial was a randomized, open-label, comparative trial. Subjects with Iron Deficiency Anaemia (IDA) were randomized 1:1 to one treatment course of one of the following treatments: • Group A: iron isomaltoside 1000 (Monofer®, Pharmacosmos, Holbok, Denmark, termed iron isomaltoside in the following), 1000 mg at baseline • Group B: ferric carboxymaltose (Ferinject®/Injectafer®, Vifor Inc, Switzerland), 750 mg at baseline and day 7, cumulative dose: 1500 mg
The secondary safety endpoints were the following: • Incidence of s-phosphate below 1.0 mg/dL at any time from baseline to day 35 • Time with hypophosphatemia (i.e. time with s-phosphate <2.0 mg/dL) from baseline to day 35 • Proportion of subjects with hypophosphatemia at day 35 • Absolute [Δ] and relative [%] changes in s-phosphate from baseline to 1, 7, 8, 14, 21, and 35 • Fractional phosphate urinary excretion at 1, 7, 8, 14, 21, and 35 • Change in iFGF23, cFGF23, vitamin D (25, 1,25, 24,25), PTH, and ionized calcium from baseline to 1, 7, 8, 14, 21, and 35 • Type and incidence of AEs • Serious or severe hypersensitivity reaction starting on or after the first dose of randomized treatment (i.e. treatment emergent). The hypersensitivity terms were defined as standardised Medical Dictionary for Regulatory Activities query (SMQ) terms. […]
The following safety laboratory assessments were analysed: • S-phosphate: inorganic phosphorous forms an ammonium phosphomolybdate complex having the formula (NH4)3[PO4](MoO3)12 with ammonium molybdate in the presence of sulfuric acid. The complex was determined photometrically in the ultraviolet region (340 nm) of the spectrum using the Roche Modular and Cobas Analyzer. • iFGF23 and cFGF23: the human intact FGF23 was measured by the 2nd generation Elisa kit manufactured by Immonotropics, Inc, San Clemente, CA. […] The human C-terminal FGF23 was measured by the Elisa kit manufactured by Immonotropics, Inc, San Clemente, CA. […] After evaporation under nitrogen, the residue was reconstituted and analyzed using Liquid Chromatography (LC) with Tandem Mass Spectrometric detection (MS/MS). […] A direct relationship exists between the amount of PTH present in the patient sample and the amount of relative light units (RLUs) detected by the system. • Ionized calcium: Measured by the IL GEM Premier 3500 PAK cartridge. […]

[1] = clinical trials and case reports; Wolf et al., 2013; cited from earlier work

| change of the iFGF23 level (human intact FGF23) | Substance | risk for iFGF23-mediated reduction of serum phosphate levels and development of hypophosphatemia [1] |
| --- | --- | --- |
| essentially no change | iron isomaltoside 1000 [IIM] |  |
|  | saccharated iron oxide | highest risk |
|  | iron polymaltose | highest risk |
